Where two headings read alike, the source gives them in different places.
Test system: IL-1β production in PMA-differentiated THP-1 cells
Assay: IL-1β production in PMA-differentiated THP-1 cells stimulated with gramicidin (hTHP-1 assay, HTRF readout; Procedures 1-3)
Format: cell-based, human
Settings: Homo sapiens, THP-1, hTHP-1 assay containing 2% fetal bovine serum, average, read-out: hTHP-1 IC50 (Average IC50 of compounds in hTHP-1 assay)
Procedure, shortened: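 PMA-differentiated (20 ng/ml, 16-18 h) THP-1 cells in RPMI with 2% FBS, 50,000 cells/well, preincubated 1 h with compound (final 0.0017-100 μM, 0.37% DMSO), then stimulated with 5 μM gramicidin for 2 h. IL-1β in cell-free supernatant measured by HTRF (620/668 nm).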

IC50 (given as bound) | IC50 (class symbols) | SMILES
> 30000 nM | – | NCc1ccc(S(N)(=O)=NC(=O)Nc2c3c(cc4c2CCC4)CCC3)cc1 (single isomer, unassigned) [Example 412, (S) or (R)-4-(aminomethyl)-N′-((1,2,3,5,6,7-hexahydro-s-indacen-4-yl)carbamoyl)benzene-sulfonimidamide]
– | 200 to 1000 nM | CC(C)Cc1ccc(S(N)(=O)=NC(=O)Nc2c3c(cc4c2CCC4)CCC3)cn1 (single isomer, unassigned) [Example 416, (S) or (R)-N′-((1,2,3,5,6,7-hexahydro-s-indacen-4-yl)carbamoyl)-6-isobutylpyridine-3-sulfonimidamide]
– | 8 to 40 nM | Cc1oc(S(N)(=O)=NC(=O)Nc2c3c(cc4c2CCC4)CCC3)cc1C(C)(C)O (stereo not drawn) [Example 1, N′-(1,2,3,5,6,7-hexahydro-s-indacen-4-ylcarbamoyl)-4-(2-hydroxypropan-2-yl)-5-methylfuran-2-sulfonimidamide]
– | 40 to 200 nM | Cc1oc(S(N)(=O)=NC(=O)Nc2c(C(C)C)cc(F)cc2C(C)C)cc1C(C)(C)O (stereo not drawn) [Example 10, N′-(4-fluoro-2,6-diisopropylphenylcarbamoyl)-4-(2-hydroxypropan-2-yl)-5-methylfuran-2-sulfonimidamide]
– | 40 to 200 nM | Cc1sc(S(N)(=O)=NC(=O)Nc2c3c(cc4c2CCC4)CCC3)cc1C(C)(C)O (stereo not drawn) [Example 12, N′-(1,2,3,5,6,7-hexahydro-s-indacen-4-ylcarbamoyl)-4-(2-hydroxypropan-2-yl)-5-methylthiophene-2-sulfonimidamide]
– | 8 to 40 nM | CC(C)c1cc(OC(F)F)cc(C(C)C)c1NC(=O)N=S(N)(=O)c1sc(C(C)(C)O)cc1F (stereo not drawn) [Example 17, N′-(4-(difluoromethoxy)-2,6-diisopropylphenylcarbamoyl)-3-fluoro-5-(2-hydroxypropan-2-yl)thiophene-2-sulfonimidamide]
– | 200 to 1000 nM | CCc1cc(OC(F)F)cc(C(C)C)c1NC(=O)N=S(N)(=O)c1cnc(C(C)(C)O)s1 (stereo not drawn) [Example 18, N′-(4-(difluoromethoxy)-2-ethyl-6-isopropylphenylcarbamoyl)-2-(2-hydroxypropan-2-yl)thiazole-5-sulfonimidamide]
– | 5000 to 30000 nM | Cc1cc(C(C)(C)O)ccc1S(N)(=O)=NC(=O)Nc1c(C(C)C)cc(OC(F)F)cc1C1CC1 (stereo not drawn) [Example 29, N′-(2-cyclopropyl-4-(difluoromethoxy)-6-isopropylphenylcarbamoyl)-4-(2-hydroxypropan-2-yl)-2-methylbenzenesulfonimidamide]
– | 40 to 200 nM | Cc1oc(S(N)(=O)=NC(=O)Nc2c(C(C)C)cc(C#N)c(F)c2C(C)C)cc1C(C)(C)O (stereo not drawn) [Example 33, N′-(4-cyano-3-fluoro-2,6-diisopropylphenylcarbamoyl)-4-(2-hydroxypropan-2-yl)-5-methylfuran-2-sulfonimidamide]
– | 1000 to 5000 nM | CC(C)c1cc(F)cc(C(C)C)c1NC(=O)N=S(N)(=O)c1ccc(CN(C)C)cc1 (stereo not drawn) [Example 36, 4-((dimethylamino)methyl)-N′-(4-fluoro-2,6-diisopropylphenylcarbamoyl)-benzenesulfoniniidamide]
– | 1000 to 5000 nM | CC(C)c1cc(OC(F)F)cc(C2CC2)c1NC(=O)N=S(N)(=O)c1ccc(CN(C)C)cc1 (stereo not drawn) [Example 37, N′-(2-cyclopropyl-4-(difluoromethoxy)-6-isopropylphenylcarbamoyl)-4-((dimethylamino)methyl)benzene sulfonimidamide]
– | 40 to 200 nM | CC(C)c1cc(F)cc(C(C)C)c1NC(=O)N=S(N)(=O)c1cc(C(C)(C)O)cs1 (stereo not drawn) [Example 40, N′-(4-fluoro-2,6-diisopropylphenylcarbamoyl)-4-(2-hydroxypropan-2-yl)thiophene-2-sulfonimidamide]
– | 5000 to 30000 nM | CC(C)c1cc(F)cc(C(C)C)c1NC(=O)N=S(N)(=O)c1ccc(S(C)(=O)=O)cc1 (stereo not drawn) [Example 42, N′-(4-fluoro-2,6-diisopropylphenylcarbamoyl)-4-(methylsulfonyl)benzenesulfonim idamide]
– | 40 to 200 nM | CC(C)(O)c1ncc(S(N)(=O)=NC(=O)Nc2c3c(c(C#N)c4c2CCC4)CCC3)s1 (stereo not drawn) [Example 43, N′-(8-cyano-1,2,3,5,6,7-hexaliydro-s-indacen-4-ylcarbamoyl)-2-(2-hydroxypropan-2-yl)thiazole-5-sulfonimidamide]

More lines, now with the values behind:

SMILES | IC50 (given as bound) | IC50 (class symbols)
NCc1ccc(S(N)(=O)=NC(=O)Nc2c3c(cc4c2CCC4)CCC3)cc1 (single isomer, unassigned) [Example 411, (R) or (S)-4-(aminomethyl)-N′-((1,2,3,5,6,7-hexahydro-s-indacen-4-yl)carbamoyl)benzene-sulfonimidamide] | – | 1000 to 5000 nM
CC(C)Cc1ccc(S(N)(=O)=NC(=O)Nc2c3c(cc4c2CCC4)CCC3)cn1 (single isomer, unassigned) [Example 415, (R) or (S)-N′-((1,2,3,5,6,7-hexahydro-s-indacen-4-yl)carbamoyl)-6-isobutylpyridine-3-sulfonimidamide] | > 30000 nM | –
CC(C)c1cc(-c2ccccc2CO)cc(C(C)C)c1NC(=O)N=S(N)(=O)c1ccc(CN(C)C)cc1 (stereo not drawn) [Compound 249] | > 30000 nM | –
Cc1oc([S@@](N)(=O)=NC(=O)Nc2c3c(cc4c2CCC4)CCC3)cc1C(C)(C)O [Example 2, (S)—N′-(1,2,3,5,6,7-hexahydro-s-indacen-4-ylcarbamoyl)-4-(2-hydroxypropan-2-yl)-5-methylfuran-2-sulfonimidamide] | – | 8 to 40 nM
CC(C)(C)OC(=O)NS(=O)(=NC(=O)Nc1c2c(cc3c1CCC3)CCC2)c1cnc(C(C)(C)O)s1 (stereo not drawn) [Example 7, Tert-butyl N-(1,2,3,5,6,7-hexahydro-s-indacen-4-ylcarbamoyl)-2-(2-hydroxypropan-2-yl)thiazole-5-sulfonimidoylcarbamate] | – | 200 to 1000 nM
Cc1cc(NC(=O)N=S(N)(=O)c2cc(C)c(C(C)(C)O)s2)cc(C)n1 (stereo not drawn) [Example 9, N′-((2,6-dimethylpyridin-4-yl)carbamoyl)-4-methyl-5-(2-hydroxypropan-2-yl)thiophene-2-sulfonimidamide] | > 30000 nM | –
CC(C)c1cc(F)cc(C(C)C)c1NC(=O)N=S(N)(=O)c1ccc(C(C)(C)O)cc1 (stereo not drawn) [Example 11, N′-(4-fluoro-2,6-diisopropylphenylcarbamoyl)-4-(2-hydroxypropan-2-yl)benzenesulfonimidamide] | – | 5000 to 30000 nM
Cc1cc(C(C)(C)O)ccc1S(N)(=O)=NC(=O)Nc1c2c(cc3c1CCC3)CCC2 (stereo not drawn) [Example 19, N′-(1,2,3,5,6,7-hexahydro-s-indacen-4-ylcarbamoyl)-4-(2-hydroxypropan-2-yl)-2-methylbenzenesulfonimidamide] | – | 1000 to 5000 nM
CC(C)c1cc(F)cc(C(C)C)c1NC(=O)N=S(N)(=O)c1cccc(C(C)(C)O)c1 (stereo not drawn) [Example 22, N′-(4-fluoro-2,6-diisopropylphenylcarbamoyl)-3-(2-hydroxypropan-2-yl)benzenesulfonimidamide] | – | 1000 to 5000 nM
Cc1cc(C(C)(C)O)sc1S(N)(=O)=NC(=O)Nc1c(C(C)C)cc(OC(F)F)cc1C(C)C (stereo not drawn) [Example 24, N′-(4-(difluoromethoxy)-2,6-diisopropylphenylcarbamoyl)-5-(2-hydroxypropan-2-yl)-3-methylthiophene-2-sulfonimidamide] | – | 1000 to 5000 nM
CC(C)(O)c1csc(S(N)(=O)=NC(=O)Nc2c3c(c(C#N)c4c2CCC4)CCC3)c1 (stereo not drawn) [Example 26, N′-(8-cyano-1,2,3,5,6,7-hexahydro-s-indacen-4-ylcarbamoyl)-4-(2-hydroxypropan-2-yl)thiophene-2-sulfonimidamide] | – | 40 to 200 nM
CC(C)(O)c1ncc(S(N)(=O)=NC(=O)Nc2c3c(c(OC(F)F)c4c2CCC4)CCC3)s1 (stereo not drawn) [Example 27, N′-(8-(difluoromethoxy)-1,2,3,5,6,7-hexahydro-s-indacen-4-ylcarbainoyl)-2-(2-hydroxypropan-2-yl)thiazole-5-sulfonimidamide] | – | 200 to 1000 nM
CC(C)(O)c1cccc(S(N)(=O)=NC(=O)Nc2c3c(c(F)c4c2CCC4)CCC3)c1 (stereo not drawn) [Example 34, N′-(8-fluoro-1,2,3,5,6,7-hexahydro-s-indacen-4-ylcarbamoyl)-3-(2-hydroxypropan-2-yl)benzenesulfonimidamide] | – | 1000 to 5000 nM
CC(C)c1cc(C#N)cc(C(C)C)c1NC(=O)N=S(N)(=O)c1ncc(C(C)(C)O)s1 (stereo not drawn) [Example 35, N′-(4-cyano-2,6-diisopropylphenylcarbamoyl)-5-(2-hydroxypropan-2-yl)thiazole-2-sulfonimidamide] | – | 200 to 1000 nM
CC(C)c1cc(F)cc(C(C)C)c1NC(=O)N=S(N)(=O)c1ncc(C(C)(C)O)s1 (stereo not drawn) [Example 39, N′-(4-fluoro-2,6-diisopropylphenylcarbamoyl)-5-(2-hydroxypropan-2-yl)thiazole-2-sulfonimidamide] | – | 200 to 1000 nM
CC(C)(O)c1cccc(S(N)(=O)=NC(=O)Nc2c3c(cc4c2CCC4)CCC3)c1 (stereo not drawn) [Example 46, N′-(1,2,3,5,6,7-hexahydro-s-indacen-4-ylcarbamoyl)-3-(2-hydroxypropan-2-yl)benzenesulfonimidamide] | – | 1000 to 5000 nM
